We go through seven compounds from patent publication EP0363041A1 (priority 1988, dated 1990).

Common to all, as to format: binding, mouse
Test [1] concerns MO-6.
The test system of test [2] is "antibody carrier" (monoclonal antibody of MO-3 strain). The test can be described thus: Latex agglutination assay: competition with "normorphine carrier" for "antibody carrier".
The subject of test [3] is MO-3.
The test system of test [4] is MO-5.
Test [5] has as its system MO-2.
The subject of test [6] is MO-4.

“And” between values parts separate entries of the source, which are not always exact repeats. Identical values can stand only once. Like-named read-outs stand apart in the source and are kept apart here.

For the compound `COC(=O)[C@H]1[C@@H](OC(=O)c2ccccc2)C[C@@H]2CC[C@H]1N2C` [Cocaine, cocaine], the “reactivity ratio with morphine, MO-6” value in test [1] is reported as less than 0.1. The “time at which polystyrene latex particles were observed to be agglutinated” value in test [2] was 16 s and 13 s. The “reactivity ratio with morphine, MO-3” value in test [3] is given as less than 0.001. Further, in test [4], the “reactivity ratio with morphine, MO-5” value was less than 0.001. In test [5], the “reactivity ratio with morphine, MO-2” value was less than 1.0. The “reactivity ratio with morphine, MO-4” value in test [6] is listed as less than 0.001.
Take `COc1ccc2c3c1O[C@H]1[C@@H](O)C=C[C@H]4[C@@H](C2)N(C)CC[C@@]341` [Codeine, codeine]: the “reactivity ratio with morphine, MO-6” value in test [1] was less than 0.1. Moreover, the “reactivity ratio with morphine, MO-3” value in test [3] is on record as less than 0.1. In addition, the “reactivity ratio with morphine, MO-5” value in test [4] was less than 0.1. The “reactivity ratio with morphine, MO-2” value in test [5] is reported as less than 1.0. In addition, the “reactivity ratio with morphine, MO-4” value in test [6] is recorded as less than 0.1.
As for `CCOc1ccc2c3c1O[C@H]1[C@@H](O)C=C[C@H]4[C@@H](C2)N(C)CC[C@@]341` [Ethylmorphine, ethylmorphine], the “reactivity ratio with morphine, MO-6” value in test [1] is less than 0.1. For the same compound, the “time at which polystyrene latex particles were observed to be agglutinated” value in test [2] (0.3 ppm in urine of healthy men, normorphine carrier of Example 5, 0 ppm gives 16 seconds) was found to be 16 s; in test [2] (0.3 ppm in urine of healthy men, normorphine carrier of Example 6, 0 ppm gives 13 seconds) it was 13 s. Moreover, the “reactivity ratio with morphine, MO-3” value in test [3] is less than 0.01. In test [4], the “reactivity ratio with morphine, MO-5” value is listed as less than 0.01. For the same compound, the “reactivity ratio with morphine, MO-2” value in test [5] is given as less than 1.0. Besides, the “reactivity ratio with morphine, MO-4” value in test [6] was less than 0.01.
`CN1CC[C@]23c4c5ccc(O[C@@H]6O[C@H](C(=O)O)[C@@H](O)[C@H](O)[C@H]6O)c4O[C@H]2[C@@H](O)C=C[C@H]3[C@H]1C5` [M - 3 - G, morphine-3-glucronide]: in test [1], the “reactivity ratio with morphine, MO-6” value is 0.3. The “reactivity ratio with morphine, MO-3” value in test [3] came out at 0.1. In test [4], the “reactivity ratio with morphine, MO-5” value is on record as 0.5. Also, in test [5], the “reactivity ratio with morphine, MO-2” value was 2.0. The “reactivity ratio with morphine, MO-4” value in test [6] worked out at 0.2.
Regarding `CN1CC[C@]23c4c5ccc(O)c4O[C@H]2[C@@H](O[C@@H]2O[C@H](C(=O)O)[C@@H](O)[C@H](O)[C@H]2O)C=C[C@H]3[C@H]1C5` [M - 6 - G, morphine-6-glucronide], the “reactivity ratio with morphine, MO-6” value in test [1] came to 1.0. In addition, the “reactivity ratio with morphine, MO-3” value in test [3] is recorded as 0.6. The “reactivity ratio with morphine, MO-5” value in test [4] amounted to 0.9. Besides, the “reactivity ratio with morphine, MO-2” value in test [5] is listed as 440. Also, the “reactivity ratio with morphine, MO-4” value in test [6] turned out to be 0.9.
Turning to `CCC(=O)C(CC(C)N(C)C)(c1ccccc1)c1ccccc1` (centres unmarked) [Methadone, methadone], the “reactivity ratio with morphine, MO-6” value in test [1] is given as less than 0.1. For the same compound, the “reactivity ratio with morphine, MO-3” value in test [3] is listed as less than 0.001. Further, in test [4], the “reactivity ratio with morphine, MO-5” value is less than 0.001. In addition, the “reactivity ratio with morphine, MO-2” value in test [5] is reported as less than 1.0. For the same compound, the “reactivity ratio with morphine, MO-4” value in test [6] is less than 0.001.
As to `CN1CC[C@]23c4c5ccc(O)c4O[C@H]2[C@@H](O)C=C[C@H]3[C@H]1C5` [Morphine, morphine], the “reactivity ratio with morphine, MO-6” value in test [1] was determined as 100. Further, the “reactivity ratio with morphine, MO-3” value in test [3] stood at 100. Besides, the “reactivity ratio with morphine, MO-5” value in test [4] stood at 100. Further, the “reactivity ratio with morphine, MO-2” value in test [5] worked out at 100. Besides, the “reactivity ratio with morphine, MO-4” value in test [6] is listed as 100.
